Patent US11111245B2, “Derivatives of N-cycloalkyl/heterocycloalkyl-4-(imidazo[1,2-a]pyridine)pyrimidin-2-amine as therapeutic agents” (Aucentra Therapeutics Pty Ltd, priority 2017, dated 2021)

Tests used:
CDK9/T1 = CDK9/T1 (Homo sapiens, UniProt P50750); test: ADP Glo Kinase assay CDK9/T1; format: biochemical; conditions: CDK9T1; read-out: CDK inhibition, Ki (μM) CDK9T1
Summary of the method: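 Luminescent ADP detection measured activity after a 40 min, 37° C ATP-initiated reaction, using RB-CTF for CDK4/D1 and CDK6/D3 and RBER-IRStide for CDK9/T1. Controls lacked or contained kinase. Values: IC50 by four-parameter nonlinear regression, Ki from ATP Km.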

CDK4/D1 = CDK4/D1 (Homo sapiens, UniProt P11802); test: ADP Glo Kinase assay CDK4/D1; format: biochemical; conditions: CDK4D1; for remaining activity at 10 µM: compound at 10 μM, read-out: residual activity (%) at 10 μM CDK4D1; for Ki: read-out: CDK inhibition, Ki (μM) CDK4D1
Summary of the method: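 ADP Glo luminescence, in-house: CDK4/D1, CDK6/D3 on RB-CTF substrate (Tris pH 7.5, MgCl2, DTT, BSA); CDK9/T1 on RBER-IRStide. Reaction 40 min, 37° C after ATP addition. 10-point 1:3 series, 10 μM to 0.5 nM. IC50 by 4-parameter logistic; Ki derived using ATP Km.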

leukemia cell lines = test: Resazurin cell viability assay on leukemia cell lines (72 h growth inhibition, GI50); format: cell-based; conditions: Homo sapiens, MV4-11 cells
Summary of the method: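 Cells were exposed to compound, then viability was read by MTT (solid tumour lines) or resazurin reduction (leukaemia lines). Non-linear regression gave the concentration inhibiting 50% of cell growth.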

CDK6/D3 = CDK6/D3 (Homo sapiens, UniProt Q00534); test: ADP Glo Kinase assay CDK6/D3; format: biochemical; conditions: CDK6D3; for remaining activity at 10 µM: compound at 10 μM, read-out: residual activity (%) at 10 μM CDK6D3; for Ki: read-out: CDK inhibition, Ki (μM) CDK6D3
Protocol: Eurofins Pharma Discovery or Reaction Biology Corporation Kinase Profiler services were used to measure inhibition of CDKs and other kinases by radiometric assay. Inhibition of CDK4/D1, CDK6/D3 and CDK9/T1 were also determined in-house using ADP Glo Kinase assays (Promega Corporation, Madison, USA). Briefly, the kinase reaction for CDK4/D1 and CDK6/D3 was performed with kinase reaction buffer ([…] Tris base pH 7.5, 20 mM MgCl2, 0.4 mM DTT), 0.1 mg/ml BSA and RB-CTF substrate (retinoblastoma protein 1 C-terminal fraction). For CDK9/CyclinT1, the kinase reaction was performed with standard assay buffer and Kinase Dilution Buffer and RBER-IRStide substrate. Serial dilutions of 1:3 were prepared for test compounds for 10 concentrations (from 10 μM to 0.5 nM). The kinase reactions were started by addition of ATP, incubated for 40 min at 37° C. and then stopped by adding 10 μL of ADP Glo reagent. After incubation at room temperature in the dark for 40 min, 20 μL of kinase detection reagent was added per well and incubated for 40 min. Luminescence was measured using an EnVision Multilabel plate reader (PerkinElmer, Buckinghamshire, UK). Positive and negative controls were performed in the presence and absence of CDK kinases, respectively. Half-maximal inhibition (IC50) values were calculated using a 4-parameter logistic non-linear regression model with Graphpad prism (Version 6.0). Apparent inhibition constants (Ki) values were calculated from Km (ATP) and IC50 values for the respective kinases.

CDKs and other kinases [1] = biological target: T1, CDKs and other kinases (Homo sapiens, UniProt P50613); test: Radiometric kinase assay (Eurofins Pharma Discovery or Reaction Biology Corporation Kinase Profiler); format: biochemical; conditions: CDK7H; for remaining activity at 10 µM: compound at 10 μM, read-out: residual activity (%) at 10 μM CDK7H; for Ki: read-out: CDK inhibition, Ki (μM) CDK7H
T1 construct: other: CDK7H; residual activity (%) at 10 μM CDK7H; compound at 10 μM
Summary of the method: (§1)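 Other CDKs and further kinases were profiled externally by radiometric assay. In-house ADP Glo assays covered CDK4/D1 and CDK6/D3 (RB-CTF substrate, pH 7.5 Tris buffer with MgCl2, DTT, BSA) and CDK9/T1 (RBER-IRStide substrate), 40 min at 37° C.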

CDKs and other kinases [2] = biological target: T2, CDKs and other kinases (Homo sapiens, UniProt P24941); test: as above; format: biochemical; conditions: CDK2A; for remaining activity at 10 µM: compound at 10 μM, read-out: residual activity (%) at 10 μM CDK2A; for Ki: read-out: CDK inhibition, Ki (μM) CDK2A
T2 construct: other: CDK2A; residual activity (%) at 10 μM CDK2A; compound at 10 μM
Summary of the method: as §1

CDKs and other kinases [3] = biological target: T3, CDKs and other kinases (Homo sapiens, UniProt P06493); test: as above; format: biochemical; conditions: CDK1B; for remaining activity at 10 µM: compound at 10 μM, read-out: residual activity (%) at 10 μM CDK1B; for Ki: read-out: CDK inhibition, Ki (μM) CDK1B
T3 construct: other: CDK1B; residual activity (%) at 10 μM CDK1B; compound at 10 μM
Summary of the method: as §1

T1 sequence (P50613 whole entry): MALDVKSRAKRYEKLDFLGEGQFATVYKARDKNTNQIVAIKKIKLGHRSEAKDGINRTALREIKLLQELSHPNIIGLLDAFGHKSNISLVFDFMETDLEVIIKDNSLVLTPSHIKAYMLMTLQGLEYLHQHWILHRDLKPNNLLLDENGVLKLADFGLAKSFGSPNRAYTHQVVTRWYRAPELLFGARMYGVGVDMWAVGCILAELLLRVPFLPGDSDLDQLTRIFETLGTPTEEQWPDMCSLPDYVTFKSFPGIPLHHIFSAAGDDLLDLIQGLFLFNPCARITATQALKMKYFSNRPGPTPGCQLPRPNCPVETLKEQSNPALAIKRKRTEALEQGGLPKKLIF
T3 sequence (P06493 whole entry): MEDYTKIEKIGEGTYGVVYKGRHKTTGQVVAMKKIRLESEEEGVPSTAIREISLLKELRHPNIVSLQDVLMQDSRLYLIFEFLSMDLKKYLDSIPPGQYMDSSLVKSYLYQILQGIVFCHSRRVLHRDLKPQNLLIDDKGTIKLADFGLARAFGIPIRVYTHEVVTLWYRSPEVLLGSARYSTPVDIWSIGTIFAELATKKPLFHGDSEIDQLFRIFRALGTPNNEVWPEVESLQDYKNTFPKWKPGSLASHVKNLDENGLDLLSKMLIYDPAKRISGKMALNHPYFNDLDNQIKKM
Sequence of CDK4/D1 (P11802 whole entry): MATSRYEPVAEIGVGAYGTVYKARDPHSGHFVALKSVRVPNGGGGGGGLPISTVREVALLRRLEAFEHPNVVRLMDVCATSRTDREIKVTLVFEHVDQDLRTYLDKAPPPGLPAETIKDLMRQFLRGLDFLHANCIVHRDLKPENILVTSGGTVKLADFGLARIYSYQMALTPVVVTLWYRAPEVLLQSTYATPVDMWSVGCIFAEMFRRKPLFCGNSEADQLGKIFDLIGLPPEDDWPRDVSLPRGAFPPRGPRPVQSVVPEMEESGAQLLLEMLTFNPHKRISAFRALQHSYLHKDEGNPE
Sequence of CDK4/D1 (P24385 whole entry partner): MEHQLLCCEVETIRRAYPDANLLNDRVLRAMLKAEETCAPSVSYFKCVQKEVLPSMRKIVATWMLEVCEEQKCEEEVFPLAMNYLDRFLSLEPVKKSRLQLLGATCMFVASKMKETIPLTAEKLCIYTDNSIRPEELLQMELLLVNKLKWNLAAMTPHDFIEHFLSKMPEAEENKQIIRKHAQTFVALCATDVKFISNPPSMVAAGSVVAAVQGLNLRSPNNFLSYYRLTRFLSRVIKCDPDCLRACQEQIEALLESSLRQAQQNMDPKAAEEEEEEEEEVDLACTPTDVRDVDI
Sequence of CDK6/D3 (Q00534 whole entry): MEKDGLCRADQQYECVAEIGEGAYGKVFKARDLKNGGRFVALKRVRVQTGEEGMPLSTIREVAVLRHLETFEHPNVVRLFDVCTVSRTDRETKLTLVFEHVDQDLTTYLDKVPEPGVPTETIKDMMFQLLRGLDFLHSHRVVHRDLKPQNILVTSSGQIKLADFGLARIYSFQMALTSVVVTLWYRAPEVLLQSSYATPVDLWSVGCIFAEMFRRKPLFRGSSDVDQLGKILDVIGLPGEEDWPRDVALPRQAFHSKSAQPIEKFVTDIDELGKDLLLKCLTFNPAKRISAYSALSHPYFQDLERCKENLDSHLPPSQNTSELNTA
Sequence of CDK6/D3 (P30281 whole entry partner): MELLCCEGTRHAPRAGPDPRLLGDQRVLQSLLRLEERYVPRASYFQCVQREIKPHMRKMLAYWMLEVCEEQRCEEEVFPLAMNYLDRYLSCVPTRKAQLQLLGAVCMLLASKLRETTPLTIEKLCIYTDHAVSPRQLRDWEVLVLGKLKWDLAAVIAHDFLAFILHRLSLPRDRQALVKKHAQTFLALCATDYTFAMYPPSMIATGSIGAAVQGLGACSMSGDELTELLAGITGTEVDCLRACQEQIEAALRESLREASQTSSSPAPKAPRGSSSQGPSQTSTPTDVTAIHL
Sequence of CDK9/T1 (P50750 whole entry): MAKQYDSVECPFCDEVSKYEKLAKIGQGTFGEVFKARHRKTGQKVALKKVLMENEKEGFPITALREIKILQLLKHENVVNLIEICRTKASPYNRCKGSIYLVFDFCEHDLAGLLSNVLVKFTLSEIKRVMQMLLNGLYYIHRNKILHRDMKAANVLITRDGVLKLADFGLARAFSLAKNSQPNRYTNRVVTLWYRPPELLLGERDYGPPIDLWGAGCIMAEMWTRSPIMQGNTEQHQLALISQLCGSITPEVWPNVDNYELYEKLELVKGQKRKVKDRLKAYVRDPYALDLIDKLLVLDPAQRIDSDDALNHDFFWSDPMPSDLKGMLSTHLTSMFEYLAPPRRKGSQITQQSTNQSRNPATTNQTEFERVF
Sequence of CDK9/T1 (O60563 whole entry partner): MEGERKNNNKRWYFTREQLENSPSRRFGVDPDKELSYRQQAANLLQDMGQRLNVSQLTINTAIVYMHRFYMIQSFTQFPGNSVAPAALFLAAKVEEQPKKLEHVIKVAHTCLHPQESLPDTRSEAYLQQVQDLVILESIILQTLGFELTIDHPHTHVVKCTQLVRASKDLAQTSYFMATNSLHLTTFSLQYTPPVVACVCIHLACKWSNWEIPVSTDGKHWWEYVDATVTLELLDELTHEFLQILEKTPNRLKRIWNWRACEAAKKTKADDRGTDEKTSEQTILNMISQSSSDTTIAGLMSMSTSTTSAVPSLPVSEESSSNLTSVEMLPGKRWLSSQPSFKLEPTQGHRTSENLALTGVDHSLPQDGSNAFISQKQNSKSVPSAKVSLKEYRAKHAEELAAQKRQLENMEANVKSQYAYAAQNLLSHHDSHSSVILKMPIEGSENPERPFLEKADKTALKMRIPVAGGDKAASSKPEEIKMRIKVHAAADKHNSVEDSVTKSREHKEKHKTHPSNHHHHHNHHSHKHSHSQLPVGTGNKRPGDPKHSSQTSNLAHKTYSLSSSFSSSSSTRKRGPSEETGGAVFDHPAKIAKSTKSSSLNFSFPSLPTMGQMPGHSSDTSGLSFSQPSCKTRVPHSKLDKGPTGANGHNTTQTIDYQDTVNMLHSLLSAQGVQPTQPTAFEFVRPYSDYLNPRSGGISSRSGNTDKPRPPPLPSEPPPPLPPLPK

Row | SMILES | Ki (CDK9/T1) | remaining activity at 10 µM (CDK4/D1) | GI50 (leukemia cell lines) | remaining activity at 10 µM (CDK6/D3) | remaining activity at 10 µM (CDKs and other kinases [1]) | remaining activity at 10 µM (CDKs and other kinases [2]) | remaining activity at 10 µM (CDKs and other kinases [3]) | Ki (CDK4/D1) | Ki (CDK6/D3) | Ki (CDKs and other kinases [1]) | Ki (CDKs and other kinases [2]) | Ki (CDKs and other kinases [3]) | residual activity at 10 µM (CDK4/D1)
1 | Cc1cnc(NC2CCCC(N)C2)nc1-c1cnc2ccc(-c3ccccc3)cn12 (stereo not shown) [Compound 94, N^1-(5-Methyl-4-(6-phenylimidazo[1,2-a]pyridin-3-yl)pyrimidin-2-yl)cyclohexane-1,3-diamine] | 0.388 µM | 25% | 0.748 ± 0.063 µM | 45% | 10% | 12% | 20% | – | – | – | – | – | –
2 | Cc1cnc(NC2CCOCC2)nc1-c1cnc2ccc(Nc3cccnc3)cn12 [Compound 103, 3-(5-Methyl-2-((tetrahydro-2H-pyran-4-yl)amino)pyrimidin-4-yl)-N-(pyridin-3-yl)imidazo[1,2-a]pyridin-6-amine] | 0.203 µM | 30% | > 10 µM | 45% | 40% | 1% | 4% | – | – | – | – | – | –
3 | Cc1cnc(NC2CCC(N(C)C)CC2)nc1-c1cnc2ccc(Nc3cncnc3)cn12 (stereo not shown) [Compound 99, N^1,N^1-dimethyl-N^4-(5-Methyl-4-(6-(pyrimidin-5-ylamino)imidazo[1,2-a]pyridin-3-yl)pyrimidin-2-yl)cyclohexane-1,4-diamine] | 0.006 µM | – | 0.265 ± 0.034 µM | – | – | – | – | 1.16 µM | 0.51 µM | 3.1 µM | 0.48 µM | 1.66 µM | –
4 | N[C@H]1CC[C@H](Nc2ncc(F)c(-c3cnc4ccc(-c5cccnc5)cn34)n2)CC1 [Compound 26, (1r,4r)-N^1-(5-Fluoro-4-(6-(pyridin-3-yl)imidazo[1,2-a]pyridin-3-yl)pyrimidin-2-yl)cyclohexane-1,4-diamine] | 0.003 µM | 9% | < 0.001 µM | 24% | 0% | 5% | 7% | – | – | – | – | – | –
5 | Cc1cnc(N[C@H]2CC[C@H](N)CC2)nc1-c1cnc2ccc(-c3ccncc3)cn12 [Compound 37, (1r,4r)-N^1-(5-Methyl-4-(6-(pyridin-4-yl)imidazo[1,2-a]pyridin-3-yl)pyrimidin-2-yl)cyclohexane-1,4-diamine] | 0.12 µM | 7% | 0.013 ± 0.002 µM | 96% | – | – | – | – | – | 1.18 µM | 0.044 µM | 0.17 µM | –
6 | CS(=O)(=O)N[C@H]1CC[C@H](Nc2ncc(Cl)c(-c3cnc4c(Br)cc(C(F)(F)F)cn34)n2)CC1 [Compound 18, N-((1r,4r)-4-((4-(8-Bromo-6-(trifluoromethyl)imidazo [1,2-a]pyridin-3-yl)-5-chloropyrimidin-2-yl)amino)cyclohexyl)methanesulfonamide] | 0.148 µM | 9% | 6.11 ± 1.14 µM | 41% | – | – | – | – | – | 0.001 µM | 0.007 µM | 0.028 µM | –
7 | N[C@H]1CC[C@H](Nc2ncc(-c3ccccc3)c(-c3cnc4ccc(-c5ccccc5)cn34)n2)CC1 [Compound 80, (1r,4r)-N^1-(5-Phenyl-4-(6-phenylimidazo[1,2-a]pyridin-3-yl)pyrimidin-2-yl)cyclohexane-1,4-diamine] | 0.2 µM | 61% | 0.243 ± 0.053 µM | 54% | – | – | – | – | – | – | – | – | –
8 | Cc1ccc2ncc(-c3nc(N[C@H]4CC[C@H](N)CC4)ncc3F)n2c1 [Compound 4, (1r,4r)-N^1-(5-Fluoro-4-(6-methylimidazo[1,2-a]pyridin-3-yl)pyrimidin-2-yl)cyclohexane-1,4-diamine] | 0.003 µM | 0% | 0.004 ± 0.001 µM | 2% | – | 2% | 1% | – | – | – | – | – | –
9 | CS(=O)(=O)N[C@H]1CC[C@H](Nc2ncc(F)c(-c3cnc4ccccn34)n2)CC1 [Compound 16, N-((1r,4r)-4-((5-Fluoro-4-(imidazo[1,2-a]pyridin-3-yl)pyrimidin-2-yl)amino)cyclohexyl)methanesulfonamide] | 0.029 µM | – | 0.01 ± 0.001 µM | 32% | 50% | – | – | – | – | – | 0.001 µM | – | –
10 | N[C@H]1CC[C@H](Nc2ncc(Cl)c(-c3cnc4ccc(Nc5cncnc5)cn34)n2)CC1 [Compound 88, (1r,4r)-N^1-(5-Chloro-4-(6-(pyrimidin-5-ylamino)imidazo [1,2-a]pyridin-3-yl)pyrimidin-2-yl)cyclohexane-1,4-diamine] | 0.002 µM | – | – | – | – | – | – | 0.06 µM | 0.034 µM | 1.26 µM | 0.019 µM | 0.16 µM | –
11 | N[C@H]1CC[C@H](Nc2ncc(F)c(-c3cnc4ccc(F)cn34)n2)CC1 [Compound 2, (1r,4r)-N^1-(5-Fluoro-4-(6-fluoroimidazo[1,2-a]pyridin-3-yl)pyrimidin-2-yl)cyclohexane-1,4-diamine] | 0.005 µM | – | 0.006 ± 0.001 µM | 5% | – | – | – | – | – | 0.034 µM | 0.012 µM | 0.085 µM | –
12 | Cc1cnc(N[C@H]2CC[C@H](N)CC2)nc1-c1cnc2ccc(Nc3cncc(C(F)(F)F)c3)cn12 [Compound 65, (1r,4r)-N^1-(5-Methyl-4-(6-((5-(trifluoromethyl)pyridin-3-yl)amino)imidazo[1,2-a]pyridin-3-yl)pyrimidin-2-yl) cyclohexane-1,4-diamine] | 0.024 µM | – | – | 24% | 31% | 12% | 32% | – | – | – | – | – | 125%
13 | Cc1cnc(N[C@H]2CN3CCC2CC3)nc1-c1cnc2ccc(Nc3cncnc3)cn12 [Compound 76, (R)-N-(5-Methyl-4-(6-(pyrimidin-5-ylamino)imidazo [1,2-a]pyridin-3-yl)pyrimidin-2-yl)quinuclidin-3-amine] | 0.485 µM | 91% | – | 89% | 92% | 59% | 72% | – | – | – | – | – | –
14 | N[C@H]1CC[C@H](Nc2ncc(F)c(-c3cnc4ccc(Nc5cncnc5)cn34)n2)CC1 [Compound 50, (1r,4r)-N^1-(5-Fluoro-4-(6-(pyrimidin-5-ylamino)imidazo [1,2-a]pyridin-3-yl)pyrimidin-2-yl)cyclohexane-1,4-diamine] | 0.003 µM | 14% | – | 4% | 4% | 0% | 1% | – | – | – | – | – | –
15 | Cc1cnc(N[C@H]2CC[C@H](N)CC2)nc1-c1cnc2ccc(Nc3ccncn3)cn12 [Compound 116, (1r,4r)-N^1-(5-Methyl-4-(6-(pyrimidin-4-ylamino)imidazo [1,2-a]pyridin-3-yl)pyrimidin-2-yl)cyclohexane-1,4-diamine] | 0.106 µM | 18% | 0.885 ± 0.137 µM | 86% | – | – | – | – | – | – | – | – | –
